Patent US20110294890A1, “Neramexane for the treatment or prevention of inner ear disorders” (MERZ PHARMA GmbH & CO. KGaA, priority 2010, published 2011)

System: subjects with subjective tinnitus of at least moderate severity
Test: Double blind placebo controlled Phase III clinical trial of neramexane for treatment of tinnitus (TBF-12 total score)
Assay type: in vivo, human
Conditions: for Change in the TBF-12 total score from baseline to Week 17/EOT, LSmean: 50/75 mg/d, mean adjusted for covariates (ANCOVA); for Change in the TBF-12 total score from baseline to Week 17/EOT, LSmean / Change in the TBF-12 total score from baseline to Week 17/EOT, Mean change (SD): 17 weeks; for Change in the TBF-12 total score from baseline to Week 17/EOT, LSmean / Change in the TBF-12 total score from baseline to Week 17/EOT, Mean change (SD) / Comparison between treatment groups, LSmean (ner − pla), change in TBF-12 total score: FAS-LOCF; for Change in the TBF-12 total score from baseline to Week 17/EOT, Mean change (SD): neramexane mesylate 50/75 mg/d by body weight; for Comparison between treatment groups, LSmean (ner − pla), change in TBF-12 total score: estimated difference Neramexane − Placebo from ANCOVA
Protocol: The objective of this clinical trial was to assess the efficacy of neramexane as a treatment for tinnitus. The primary objective of this 17 weeks double-blind, randomized placebo-controlled study was to compare the efficacy, tolerability and safety of neramexane mesylate at two different, weight-adapted dosages (50 or 75 mg/d) with placebo in subjects with subjective tinnitus of at least moderate severity.
In a double-blind, multicenter, randomized, placebo-controlled, parallel-group study, the efficacy of neramexane in subjects suffering from tinnitus of at least moderate severity was assessed. A total of 411 patients, who fulfilled particular inclusion criteria and met none of particular exclusion criteria, were randomized to one of two double-blind treatment groups (neramexane mesylate 50 or 75 mg/d depending on body weight, or placebo).
Subjects were treated for 17 weeks with neramexane or placebo including a four- resp. five-week up-titration period, depending on study drug dose, followed by 30 to 35 days treatment-free observational period. Alternatively to treatment-free observational period, subjects could immediately at Week 17 start with a one-year open label treatment study.
Main inclusion criteria were: • Diagnosis of “subjective tinnitus” • Tinnitus duration of at least 3 months and less or equal to 12 months (subacute tinnitus) • Persistent, uni- or bilateral tinnitus • THI-12≧9 (=at least moderate tinnitus severity) • Hospital Anxiety and Depression (HADS) subscores for depression ≦10 and for anxiety ≦10
Main exclusion criteria were: • Intermittent or pulsatile tinnitus • Tinnitus as a concomitant symptom of an otological/neurological disease • Concomitant tinnitus treatment • Application for a pension/retirement pay or granted pension/retirement because of tinnitus.
Patients with a target daily dose of 50 mg neramexane mesylate (<90 kg body weight) were to reach steady state after four weeks, patients with a target total daily dose of 75 mg neramexane mesylate (≧90 kg body weight) were to reach steady state after five weeks of treatment. For patients who experienced dose limiting adverse events with the 75 mg dose, the dosage was reduced by switching the patient to 50 mg/day. Patients unable to tolerate a minimum dosage of 50 mg/day discontinued.
Patient eligibility for the study was evaluated via a check of inclusion/exclusion criteria. The subject completed a Tinnitus-Beeinträchtigungs-Fragebogen (TBF-12=Tinnitus. Handicap Inventory (THI-12)) (i.e., a 12-item modified and validated version (Greimel K V et al., Tinnitus-Beeinträchtigungs-Fragebogen (TBF-12). Manual. Frankfurt am Main: Swets & Zeitlinger B. V.; 2000) of the 25-item Tinnitus Handicap Inventory or THI (Newman C W, et al. Development of the Tinnitus Handicap Inventory. Arch Otolaryngol Head Neck Surg 1996; 122(2): 143-148; Newman C W, et al. Psychometric adequacy of the Tinnitus Handicap Inventory (THI) for evaluating treatment outcome. J Am Acad Audiol 1998; 9(2): 153-160.)). The TBF-12 items can be grouped in 2 factorial scores: an emotional-cognitive and a functional-communicational factor. At Visit 1. patients also completed a Tinnitus Rating Scale (TRS, Likert scores on Tinnitus Loudness, Tinnitus Impact on Life, and Tinnitus Annoyance), and the Hospital Anxiety and Depression Scale Audiology/psychoacoustic measurements were performed unless results from previous examinations performed no more than one year prior to Screening were available.
Visit 7 (Week 17, end of treatment (EOT)). This visit occurred at the end of the 12-week fixed-dose double-blind treatment period. This visit was also to be performed for patients who discontinued prematurely. The subject was asked about adverse events and changes in concomitant medication/disease, which changes are documented. A clinical laboratory evaluation was performed as well as ECG and physical examination (including body weight). Blood samples were collected in order to determine neramexane concentration. […]

CC1(C)CC(C)(C)CC(C)(N)C1 [Neramexane, 1-amino-1,3,3,5,5-pentamethylcyclohexane]
Change in the TBF-12 total score from baseline to Week 17/EOT, LSmean (Females, N=74): −3.8
Change in the TBF-12 total score from baseline to Week 17/EOT, Mean change (SD) (Females, N=74): −3.1 (4.2)
Comparison between treatment groups, LSmean (ner − pla), change in TBF-12 total score (Females, P-value 0.0122): −1.7
Change in the TBF-12 total score from baseline to Week 17/EOT, LSmean (Total population, N=203): −3.0
Change in the TBF-12 total score from baseline to Week 17/EOT, Mean change (SD) (Total population, N=203): −2.5 (4.3)
Comparison between treatment groups, LSmean (ner − pla), change in TBF-12 total score (Total population, P-value 0.1997): −0.5
Improvement for the treatment of tinnitus in subgroups of women (women 26 to 65 or 46 to 65 years of age, and/or free from clinical signs of depression (HADS-D 7 or less)): an improvement
Improvement for the treatment of tinnitus in women (TBF-12 total score) (women, compared to the effect found for the total patient population): statistically significant improvement
